Test results published in doi:10.1101/2023.11.24.568596v1 (biorxiv, 2023).

Key:
Conditions in all cases: binder
MST1 = target: T1, MST1 (Homo sapiens, UniProt Q13043)
T1 sequence (Q13043 1-487): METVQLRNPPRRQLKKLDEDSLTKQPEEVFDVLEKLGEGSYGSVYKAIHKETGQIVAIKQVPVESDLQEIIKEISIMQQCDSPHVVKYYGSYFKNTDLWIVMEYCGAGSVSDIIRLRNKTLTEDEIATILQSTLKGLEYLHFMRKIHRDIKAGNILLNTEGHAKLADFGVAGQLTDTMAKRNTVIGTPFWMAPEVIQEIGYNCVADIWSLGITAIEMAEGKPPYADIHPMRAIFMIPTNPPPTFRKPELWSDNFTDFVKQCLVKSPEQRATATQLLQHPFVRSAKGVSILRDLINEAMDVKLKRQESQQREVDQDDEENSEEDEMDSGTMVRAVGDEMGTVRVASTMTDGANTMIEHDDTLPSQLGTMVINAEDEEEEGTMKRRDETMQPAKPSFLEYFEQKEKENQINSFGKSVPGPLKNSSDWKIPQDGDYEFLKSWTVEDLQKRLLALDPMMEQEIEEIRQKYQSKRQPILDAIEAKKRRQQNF

MST4 = MST4 (Homo sapiens, UniProt Q9P289)
Sequence of MST4 (Q9P289 whole entry): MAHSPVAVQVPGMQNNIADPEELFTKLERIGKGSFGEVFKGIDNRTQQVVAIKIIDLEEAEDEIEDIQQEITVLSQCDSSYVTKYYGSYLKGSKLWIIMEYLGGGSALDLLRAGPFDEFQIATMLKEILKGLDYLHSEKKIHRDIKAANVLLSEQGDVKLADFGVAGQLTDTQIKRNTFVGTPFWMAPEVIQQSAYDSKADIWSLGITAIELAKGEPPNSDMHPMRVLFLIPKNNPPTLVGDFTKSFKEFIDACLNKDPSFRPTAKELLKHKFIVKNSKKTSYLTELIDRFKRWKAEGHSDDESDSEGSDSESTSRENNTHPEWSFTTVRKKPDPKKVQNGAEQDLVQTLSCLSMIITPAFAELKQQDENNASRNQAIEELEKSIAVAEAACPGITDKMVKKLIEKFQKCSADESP

PAK1 = PAK1 (Homo sapiens, UniProt Q13153)
Sequence of PAK1 (Q13153 whole entry): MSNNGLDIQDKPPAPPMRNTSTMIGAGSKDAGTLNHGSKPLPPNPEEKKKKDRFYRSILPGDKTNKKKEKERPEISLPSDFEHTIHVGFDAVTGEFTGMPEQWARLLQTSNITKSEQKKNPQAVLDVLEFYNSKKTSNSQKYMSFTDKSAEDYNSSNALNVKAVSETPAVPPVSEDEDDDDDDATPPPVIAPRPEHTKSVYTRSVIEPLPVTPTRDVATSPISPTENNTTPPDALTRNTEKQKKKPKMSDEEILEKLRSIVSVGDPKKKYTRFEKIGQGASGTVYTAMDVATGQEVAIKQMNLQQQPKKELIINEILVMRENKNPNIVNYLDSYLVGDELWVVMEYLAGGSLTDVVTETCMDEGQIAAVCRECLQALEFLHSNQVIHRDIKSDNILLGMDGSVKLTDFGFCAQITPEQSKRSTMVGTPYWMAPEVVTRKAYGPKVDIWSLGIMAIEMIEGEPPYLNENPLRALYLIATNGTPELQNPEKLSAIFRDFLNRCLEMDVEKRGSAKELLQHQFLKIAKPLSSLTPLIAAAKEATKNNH

SMILES	dTm MST1 (MST1) [°C]	dTm MST4 (MST4) [°C]	dTm PAK1 (PAK1) [°C]
Cc1cccc(-c2ccc(-c3cc4cnc(Nc5ccc(F)c(CO)c5)nc4n(CCCCN)c3=O)c(Cl)c2)n1 [compound 33, 8-(4-Aminobutyl)-6-(2-chloro-4-(6-methylpyridin-2-yl)phenyl)-2-((4-fluoro-3-(hydroxymethyl)phenyl)amino)pyrido[2,3-d]pyrimidin-7(8H)-one]	8.6	14.8	9.3
COc1ccc(O)c(Nc2ncc3cc(-c4ccc(-c5cccc(C)n5)cc4Cl)c(=O)n(CCCCN)c3n2)c1 [compound 34, 8-(4-Aminobutyl)-6-(2-chloro-4-(6-methylpyridin-2-yl)phenyl)-2-((2-hydroxy-5-methoxy-phenyl)amino)pyrido[2,3-d]pyrimidin-7(8H)-one]	3.8	8.3	4.5
COc1cc(N2CCOCC2)ccc1Nc1ncc2cc(-c3ccc(-c4cccc(C)n4)cc3Cl)c(=O)n(CCCCN)c2n1 [compound 35, 8-(4-Aminobutyl)-6-(2-chloro-4-(6-methylpyridin-2-yl)phenyl)-2-((2-methoxy-4-morpholino-phenyl)amino)pyrido[2,3-d]pyrimidin-7(8H)-one]	4.6	9.2	5.0
COc1cc(N2CCN(C)CC2)ccc1Nc1ncc2cc(-c3ccc(-c4cccc(C)n4)cc3Cl)c(=O)n(CCCCN)c2n1 [compound 36, 8-(4-Aminobutyl)-6-(2-chloro-4-(6-methylpyridin-2-yl)phenyl)-2-((2-methoxy-4-(4-methylpiperazin-1-yl)phenyl)amino)pyrido[2,3-d]pyrimidin-7(8H)-one]	4.0	6.7	8.8
